Test results reported in patent US4965261A, “Substituted benzoxazinorifamycin derivative and antibacterial agent containing the same” (Kanegafuchi Kagaku Kogyo Kabushiki Kaisha, priority 1988, dated 1990).
Converted amounts (≈) assume the structure as drawn.

Experiments:
[1] = tested on: Mycobacterium tuberculosis H37 Rv; experiment: Antibacterial activity against a tubercle bacillus, two-fold dilution in Kirchner liquid medium; conditions: Kirchner medium with 10% bovine serum, 37° C., 4 weeks
[2] = tested on: Mycobacterium smegmatis ATCC 607; experiment: Antibacterial activity, standard method of Japan Society of Chemotherapy (Table 2); format: cell-based; conditions: Mycolicibacterium smegmatis, ATCC607, read-out: Minimal inhibitory concentration
Excerpt: (§1) Derivative No. in Table 2 corresponds to derivative No. in Table 1.

[3] = tested on: Staphylococcus aureus IFO 12732; experiment: as above; format: cell-based; conditions: IFO12732, read-out: Minimal inhibitory concentration
Excerpt: as §1

[4] = tested on: Micrococcus luteus IFO 12708; experiment: as above; format: cell-based; conditions: IFO12708, read-out: Minimal inhibitory concentration
Excerpt: as §1

[5] = tested on: Bacillus subtilis IFO 3134; experiment: as above; format: cell-based; conditions: IFO3134, read-out: Minimal inhibitory concentration
Excerpt: as §1

[6] = tested on: Klebsiella pneumoniae IFO 3512; experiment: as above; format: cell-based; conditions: IFO3512, read-out: Minimal inhibitory concentration
Excerpt: as §1

[7] = tested on: Escherichia coli IFO 12734; experiment: as above; format: cell-based; conditions: IFO12734, read-out: Minimal inhibitory concentration
Excerpt: as §1

[8] = Plasma concentration after oral administration to mice, bioassay with Micrococcus luteus IFO 12708; format: in vivo, ddY male mice; conditions: mouse, 20 mg/kg
Description: The derivatives No. 4 and No. 11 shown in Table 1 were orally administered to ddY male mice (7 weeks), respectively, in a dose of 20 mg/kg. The concentration of the test compound in the plasma was measured by a bioassay method employing Micrococcus luteus IFO 12708 as an assay bacterium according to a usual manner. The results are as follows: As for the derivative No. 4, the concentrations in the plasma after 1 hour, 3 hours, 5 hours and 8 hours from the administration were 17.0 μg/ml, 13.3 μg/ml, 14.5 μg/ml, 4.2 μg/ml, respectively. As for the derivative No. 11, the concentrations in the plasma after 1 hour, 3 hours, 5 hours and 8 hours from the administration were 17.3 μg/ml, 16.2 μg/ml, 13.8 μg/ml and 10.1 μg/ml, respectively.

[9] = tested on: Mycobacterium tuberculosis H37 Rv; experiment: Repeated treatment test of mice infected with tuberculosis, survival on fortieth day (groups of 10 mice); conditions: oral, 200 μg/mouse
[10] = tested on: Mycobacterium tuberculosis H37 Rv; experiment: Therapeutic effect on mice experimentally infected with tuberculosis (FIG. 1, groups of 20 mice); conditions: oral, 200 μg/mouse, once a day, six days a week
Description: In FIG. 1, the point, a, means the time that mice were infected, and the point, b, means the time that the treatment started.

SMILES | Minimal inhibitory concentration ([1]; Table 3) [µg/mL] | MIC [2] [µg/mL] | MIC [3] [µg/mL] | MIC [4] [µg/mL] | MIC [5] [µg/mL] | MIC [6] [µg/mL] | MIC [7] [µg/mL] | concentration at 1 h [8] [ng/mL] | concentration at 3 h [8] [ng/mL] | concentration at 5 h [8] [ng/mL] | concentration at 8 h [8] [ng/mL] | Minimal inhibitory concentration ([1]; Table 4) [µg/mL] | Survival rate [9] [%] | dead mice [9] | therapeutic effect as compared with rifampicin [10]
COC1C=COC2(C)Oc3c(C)c(O)c4c(=O)c(c5oc6c(OC(C)C)c(N7CCCC7)ccc6nc-5c4c3C2=O)NC(=O)C(C)=CC=CC(C)C(O)C(C)C(O)C(C)C(OC(C)=O)C1C (stereo not drawn) [Derivative No. 11] | 0.017 (≈ 0.0186 µM) | 1.25 (≈ 1.37 µM) | ≤ 0.02 | 0.04 (≈ 0.0439 µM) | 0.08 (≈ 0.0877 µM) | > 10 | > 10 | 17300 | 16200 | 13800 | 10100 | – | – | – | –
COC1C=COC2(C)Oc3c(C)c(O)c4c(=O)c(c5oc6c(OCC(C)C)c(N7CCN(CC(C)C)CC7)ccc6nc-5c4c3C2=O)NC(=O)C(C)=CC=CC(C)C(O)C(C)C(O)C(C)C(OC(C)=O)C1C (stereo not drawn) [Derivative No. 14] | – | 0.63 (≈ 0.632 µM) | 0.08 (≈ 0.0802 µM) | 0.31 (≈ 0.311 µM) | 0.08 (≈ 0.0802 µM) | > 10 | > 10 | – | – | – | – | – | – | – | –
CCOc1c(N2CCN(CC)CC2)ccc2nc3c4c5c6c(C)c(O)c4c(=O)c(c-3oc12)NC(=O)C(C)=CC=CC(C)C(O)C(C)C(O)C(C)C(OC(C)=O)C(C)C(OC)C=COC(C)(O6)C5=O (stereo not drawn) [Derivative No. 6] | – | 0.63 (≈ 0.669 µM) | ≤ 0.02 | ≤ 0.02 | ≤ 0.02 | 2.5 (≈ 2.66 µM) | 5 (≈ 5.31 µM) | – | – | – | – | 0.008 (≈ 0.0085 µM) | – | – | –
COc1c(N2CCN(C)CC2)ccc2nc3c4c5c6c(C)c(O)c4c(=O)c(c-3oc12)NC(=O)C(C)=CC=CC(C)C(O)C(C)C(O)C(C)C(OC(C)=O)C(C)C(OC)C=COC(C)(O6)C5=O (stereo not drawn) [Derivative No. 2] | 0.15 (≈ 0.164 µM) | 1.25 (≈ 1.37 µM) | ≤ 0.02 | ≤ 0.02 | ≤ 0.02 | 2.5 (≈ 2.74 µM) | 2.5 (≈ 2.74 µM) | – | – | – | – | – | – | – | –
CCCOc1c(N2CCCC2)ccc2nc3c4c5c6c(C)c(O)c4c(=O)c(c-3oc12)NC(=O)C(C)=CC=CC(C)C(O)C(C)C(O)C(C)C(OC(C)=O)C(C)C(OC)C=COC(C)(O6)C5=O (stereo not drawn) [Derivative No. 9] | 0.035 (≈ 0.0384 µM) | 1.25 (≈ 1.37 µM) | 0.04 (≈ 0.0439 µM) | 0.08 (≈ 0.0877 µM) | 0.08 (≈ 0.0877 µM) | > 10 | > 10 | – | – | – | – | – | – | – | –
COc1c(N2CCN(C)CC2)cc(C)c2nc3c4c5c6c(C)c(O)c4c(=O)c(c-3oc12)NC(=O)C(C)=CC=CC(C)C(O)C(C)C(O)C(C)C(OC(C)=O)C(C)C(OC)C=COC(C)(O6)C5=O (stereo not drawn) [Derivative No. 16] | – | 1.25 (≈ 1.35 µM) | ≤ 0.02 | ≤ 0.02 | ≤ 0.02 | 5 (≈ 5.39 µM) | 5 (≈ 5.39 µM) | – | – | – | – | – | – | – | –
CO[C@H]1/C=C/O[C@@]2(C)Oc3c(C)c(O)c4c(O)c(c(/C=N/N5CCN(C)CC5)c(O)c4c3C2=O)NC(=O)/C(C)=C\C=C\[C@H](C)[C@H](O)[C@@H](C)[C@@H](O)[C@@H](C)[C@H](OC(C)=O)[C@@H]1C [Rifampicin, reference compound] | 0.6 (≈ 0.729 µM) | 10 (≈ 12.2 µM) | ≤ 0.02 | ≤ 0.02 | 0.08 (≈ 0.0972 µM) | 5 (≈ 6.08 µM) | > 10 | – | – | – | – | 0.3 (≈ 0.365 µM) | 80 | – | –
CCN1CCN(c2ccc3nc4c5c6c7c(C)c(O)c5c(=O)c(c-4oc3c2OC(C)C)NC(=O)C(C)=CC=CC(C)C(O)C(C)C(O)C(C)C(OC(C)=O)C(C)C(OC)C=COC(C)(O7)C6=O)CC1 (stereo not drawn) [Derivative No. 12] | 0.017 (≈ 0.0178 µM) | 1.25 (≈ 1.31 µM) | ≤ 0.02 | ≤ 0.02 | ≤ 0.02 | 5 (≈ 5.23 µM) | 5 (≈ 5.23 µM) | – | – | – | – | – | – | – | –
COc1c(N2CCN(CC(C)C)CC2)cc(C)c2nc3c4c5c6c(C)c(O)c4c(=O)c(c-3oc12)NC(=O)C(C)=CC=CC(C)C(O)C(C)C(O)C(C)C(OC(C)=O)C(C)C(OC)C=COC(C)(O6)C5=O (stereo not drawn) [Derivative No. 17] | 0.07 (≈ 0.0722 µM) | 1.25 (≈ 1.29 µM) | ≤ 0.02 | 0.08 (≈ 0.0825 µM) | 0.04 (≈ 0.0413 µM) | > 10 | > 10 | – | – | – | – | – | 100 | there was not observed any dead mouse | –
COC1C=COC2(C)Oc3c(C)c(O)c4c(=O)c(c5oc6c(OC(C)C)c(N7CCN(CC(C)C)CC7)ccc6nc-5c4c3C2=O)NC(=O)C(C)=CC=CC(C)C(O)C(C)C(O)C(C)C(OC(C)=O)C1C (stereo not drawn) [Derivative No. 13] | 0.07 (≈ 0.0712 µM) | 1.25 (≈ 1.27 µM) | 0.04 (≈ 0.0407 µM) | 0.16 (≈ 0.163 µM) | 0.16 (≈ 0.163 µM) | > 10 | > 10 | – | – | – | – | – | 100 | there was not observed any dead mouse | –
CCOc1c(N2CCCC2)ccc2nc3c4c5c6c(C)c(O)c4c(=O)c(c-3oc12)NC(=O)C(C)=CC=CC(C)C(O)C(C)C(O)C(C)C(OC(C)=O)C(C)C(OC)C=COC(C)(O6)C5=O (stereo not drawn) [Derivative No. 4] | 0.017 (≈ 0.0189 µM) | 0.63 (≈ 0.702 µM) | ≤ 0.02 | 0.04 (≈ 0.0445 µM) | 0.04 (≈ 0.0445 µM) | > 10 | > 10 | 17000 | 13300 | 14500 | 4200 | – | 100 | there was not observed any dead mouse | –
COC1C=COC2(C)Oc3c(C)c(O)c4c(=O)c(c5oc6cc(N7CCCCC7)ccc6nc-5c4c3C2=O)NC(=O)C(C)=CC=CC(C)C(O)C(C)C(O)C(C)C(OC(C)=O)C1C (stereo not drawn) [Derivative B] | – | – | – | – | – | – | – | – | – | – | – | – | – | – | inferior to rifampicin
CCOc1c(N2CCN(C(C)C)CC2)ccc2nc3c4c5c6c(C)c(O)c4c(=O)c(c-3oc12)NC(=O)C(C)=CC=CC(C)C(O)C(C)C(O)C(C)C(OC(C)=O)C(C)C(OC)C=COC(C)(O6)C5=O (stereo not drawn) [Derivative No. 7] | 0.017 (≈ 0.0178 µM) | 1.25 (≈ 1.31 µM) | ≤ 0.02 | ≤ 0.02 | ≤ 0.02 | 5 (≈ 5.23 µM) | 5 (≈ 5.23 µM) | – | – | – | – | – | – | – | –
COc1c(N2CCN(CC(C)C)CC2)ccc2nc3c4c5c6c(C)c(O)c4c(=O)c(c-3oc12)NC(=O)C(C)=CC=CC(C)C(O)C(C)C(O)C(C)C(OC(C)=O)C(C)C(OC)C=COC(C)(O6)C5=O (stereo not drawn) [Derivative No. 3] | 0.017 (≈ 0.0178 µM) | 1.25 (≈ 1.31 µM) | ≤ 0.02 | 0.08 (≈ 0.0838 µM) | 0.04 (≈ 0.0419 µM) | > 10 | > 10 | – | – | – | – | – | – | – | –
CCCOc1c(N2CCN(CC(C)C)CC2)ccc2nc3c4c5c6c(C)c(O)c4c(=O)c(c-3oc12)NC(=O)C(C)=CC=CC(C)C(O)C(C)C(O)C(C)C(OC(C)=O)C(C)C(OC)C=COC(C)(O6)C5=O (stereo not drawn) [Derivative No. 10] | 0.07 (≈ 0.0712 µM) | 1.25 (≈ 1.27 µM) | 0.04 (≈ 0.0407 µM) | 0.16 (≈ 0.163 µM) | 0.16 (≈ 0.163 µM) | > 10 | > 10 | – | – | – | – | – | – | – | –
COc1c(N2CCCC2)ccc2nc3c4c5c6c(C)c(O)c4c(=O)c(c-3oc12)NC(=O)C(C)=CC=CC(C)C(O)C(C)C(O)C(C)C(OC(C)=O)C(C)C(OC)C=COC(C)(O6)C5=O (stereo not drawn) [Derivative No. 1] | 0.017 (≈ 0.0192 µM) | 2.5 (≈ 2.83 µM) | ≤ 0.02 | 0.04 (≈ 0.0452 µM) | 0.16 (≈ 0.181 µM) | > 10 | > 10 | – | – | – | – | – | – | – | –
CCc1c(N2CCCC2)ccc2nc3c4c5c6c(C)c(O)c4c(=O)c(c-3oc12)NC(=O)C(C)=CC=CC(C)C(O)C(C)C(O)C(C)C(OC(C)=O)C(C)C(OC)C=COC(C)(O6)C5=O (stereo not drawn) [Derivative C] | – | – | – | – | – | – | – | – | – | – | – | – | – | – | inferior to rifampicin
COc1c(N2CCCC2)cc(C)c2nc3c4c5c6c(C)c(O)c4c(=O)c(c-3oc12)NC(=O)C(C)=CC=CC(C)C(O)C(C)C(O)C(C)C(OC(C)=O)C(C)C(OC)C=COC(C)(O6)C5=O (stereo not drawn) [Derivative No. 15] | 0.008 (≈ 0.00891 µM) | 1.25 (≈ 1.39 µM) | 0.04 (≈ 0.0445 µM) | 0.04 (≈ 0.0445 µM) | 0.08 (≈ 0.0891 µM) | > 10 | > 10 | – | – | – | – | – | – | – | –
CCOc1c(N2CCN(C)CC2)ccc2nc3c4c5c6c(C)c(O)c4c(=O)c(c-3oc12)NC(=O)C(C)=CC=CC(C)C(O)C(C)C(O)C(C)C(OC(C)=O)C(C)C(OC)C=COC(C)(O6)C5=O (stereo not drawn) [Derivative No. 5] | 0.035 (≈ 0.0378 µM) | 1.25 (≈ 1.35 µM) | ≤ 0.02 | ≤ 0.02 | ≤ 0.02 | 2.5 (≈ 2.7 µM) | 2.5 (≈ 2.7 µM) | – | – | – | – | – | – | – | –
